Assay results as given in US8518466B2 (Shenzhen Hazardous Waste Treatment Station Ltd., priority 2008, dated 2013).

System: weaned piglet
Conditions: piglets
Experimental: According to the weight, sex, litter, the 60 weaned piglets were randomly divided into five groups. Group 1 is the control group using corn-soybean meal-dray whey powder diet with adding 150 mg/kg of basic copper chloride but without adding selenium. Group 2 and 3 are testing group using corn-soybean meal-dray whey powder diet with adding 0.3 mg/kg and 0.5 mg/kg of sodium selenite respectively, and adding 150 mg/kg of basic copper chloride. […] The testing period is 35 days, including 7 days of pre-test period and 28 days of formal test period.

O=[Se](O)O [sodium selenite]
selenium level of kidney compared with control group (0.3 and 0.5 mg/kg in diet): significantly higher | selenium level of liver compared with control group (0.3 and 0.5 mg/kg in diet): significantly higher | copper content in liver among groups (all groups): almost the same
